Measurements as given in publication PMC5748433, “Study on the effect of EMD386088, a 5-HT6 receptor partial agonist, in enhancing the anti-immobility action of some antidepressants in rats” (Naunyn-Schmiedeberg's Archives of Pharmacology, 2017).
pIC50: −log10 of the molar value.

Experiments:
rats = experiment: Modified forced swim test (FST) in rats; format: in vivo, rat; conditions: EMD386088 alone 2.5 mg/kg i.p.
Experimental: […]. All drugs were dissolved in distilled water immediately before administration in a volume of 2 mL/kg. All the compounds were administered intraperitoneally (i.p.). […] Control animals received vehicle according to the same schedule.
The experiment was carried out according to the modified by Detke et al. ([1995]) method of Porsolt et al. ([1978]). On the first day of an experiment, the animals were gently individually placed in Plexiglas cylinders (40 cm high, 18 cm in diameter) containing 30 cm of water maintained at 23–25 °C for 15 min. On removal from water, the rats were placed for 30 min in a Plexiglas box under 60-W bulb to dry. On the following day (24 h later), the rats were re-placed in the cylinder and the total duration of immobility, swimming, and climbing was recorded during the whole 5-min test period. The swimming behavior entailed active swimming motions, e.g., moving horizontally around in the cylinder. Climbing activity consisted of upward directed movements of the forepaws along the side of the swim chamber, and immobility was assigned when no additional activity was observed other than that necessary to keep the rat’s head above the water (Detke et al. [1995]). Fresh water was used for each animal.
The data of behavioral studies were evaluated using two-way analysis of variance (ANOVA) followed by Bonferroni’s post hoc test, p < 0.05 was considered significant.

β1-adrenoceptors = test system: β1-adrenoceptors; set-up: method as in Jastrzębska-Więsek et al. [2013]; conditions: ref Jastrzębska-Więsek et al. [2013]; cited from earlier work
recombinant human CYP2D6 = target: T1, recombinant human CYP2D6 (Homo sapiens, UniProt P10635); experiment: Luminescent CYP2D6 P450-Glo assay; format: in vitro ADME; conditions: read-out: IC 50 CYP2D6
T1 construct: purchased Promega (Madison, WI, USA)
T1 sequence (P10635 whole entry): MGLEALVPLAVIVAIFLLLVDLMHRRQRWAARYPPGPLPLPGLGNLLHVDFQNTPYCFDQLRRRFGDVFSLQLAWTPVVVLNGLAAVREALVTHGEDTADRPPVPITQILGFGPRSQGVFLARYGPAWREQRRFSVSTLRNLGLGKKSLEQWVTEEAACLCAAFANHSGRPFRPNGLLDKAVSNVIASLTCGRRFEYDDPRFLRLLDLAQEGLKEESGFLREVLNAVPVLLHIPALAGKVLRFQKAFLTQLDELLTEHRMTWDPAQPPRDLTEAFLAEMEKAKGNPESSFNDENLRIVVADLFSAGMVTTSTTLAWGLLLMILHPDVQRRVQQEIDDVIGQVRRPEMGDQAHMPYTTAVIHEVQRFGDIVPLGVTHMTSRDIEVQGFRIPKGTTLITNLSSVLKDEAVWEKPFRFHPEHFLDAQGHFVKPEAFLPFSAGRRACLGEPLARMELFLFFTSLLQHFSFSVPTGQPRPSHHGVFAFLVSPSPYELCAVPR
Experimental: The enzymatic reactions were performed in white polystyrene, flat-bottom Nunc™ MicroWell™ 96-Well Microplates (Thermo Scientific, Waltham, MA USA). The luminescence signal was measured with a microplate reader in luminescence mode (EnSpire, PerkinElmer, Waltham, MA USA).

**Q.** With Cc1[nH]c2ccc(Cl)cc2c1C1=CCNCC1.Cl [EMD386088, 5-chloro-2-methyl-3-(1,2,3,6-tetrahydro-4-pyridinyl)-1H-indole hydrochloride] as the compound, how does the “activity in the FST” value (rats) read?
**A.** Its value is “not active”.

**Q.** And the “affinity for β1-adrenoceptors” value (β1-adrenoceptors)?
**A.** The value was “no affinity”.

**Q.** What about the pIC50 (recombinant human CYP2D6) of the same compound?
**A.** Its pIC50 is 5.65.
